{"source": "paper PMC10597649", "about": "“Effect of Astragali radix extract on pharmacokinetic behavior of dapagliflozin in healthy and type 2 diabetic rats” (Frontiers in Pharmacology, 2023)", "assay": "in vivo", "settings": "for Cmax / MRT last / half-life / Tmax: male, Sprague-Dawley, rat, plasma, po; for MRT last: MRT(0-t)", "experimental": "An AB SCIEX (USA) Exion LC system consisting of vacuum degasser, binary pump and auto-sampler were used for solvent and sampler delivery. Chromatographic separation was achieved using Agilent Poroshell 120 EC-C18 column (2.1 × 100 mm, 1.9 μm). The column temperature was maintained at 40°C. The mobile phase consisted of 0.1% formic acid-1mM ammonium formate-water solution (A) and acetonitrile (B) was used, and the flow rate was set at 0.3 mL/min. The gradient elution program was as follows: 0–2.0 min (90%–65% A), 2.0–6.0 min (65%–60% A), 6.0–7.0 min (60%–90% A), 7–10 min (90% A). The processed samples were stored at 4°C in an auto sampler. The sample injection volume was 2 μL. An AB SCIEX (USA) Q-TRAP 6500 model mass spectrometer (MS) equipped with a turbolon spray ionization (ESI) source was used for mass analysis and detection. DAPA and the internal standard (IS, i.e., empagliflozin) were analyzed in positive ion mode with multiple reaction monitoring (MRM) pairs: m/z 426.1–355.0 for DAPA and m/z 468.1–355.1 for IS. The ion spray voltage was set at 5500V. The curtain gas, ion source gas 1 and ion source gas 2 were set at 35, 60 and 50 psi, respectively. The source temperature was kept at 200°C. The collision gas was set at low flow rate. The declustering potential and collision energy were 35 V and 19 V for DAPA, 40 V and 21 V for IS.\nThe rat plasma samples (50 μL), IS working solution (5 μL), 50% methanol (5 μL), and MTBE (500 μL) were mixed, then were vortexed for 3 min and centrifuged for 5 min (4000 rpm, 4°C). The organic phase was transferred to a new centrifuged tube and evaporated to dryness with a stream of nitrogen at room temperature. The dried samples were redissolved with 100 µL of 50% methanol and vortexed for 1 min, then 2 µL of supernatant fluid was injected into the LC-MS/MS instrument for analysis.\nMale Sprague Dawley (SD) rats (180–220g, 6–8 weeks old) were provided by Animal Experimentation Centre, School of Pharmacy, Fudan University (Shanghai, China). All the experimental procedures for this study were reviewed and approved by Experimental Animal Ethics Committee of School of Pharmacy, Fudan University, which was in strict compliance with the International Code for the Care and Use of Experimental Animals (approval number:2020-04-LY-MG-01). All the animals were housed under standard laboratory conditions of temperature (25°C ± 2°C), constant humidity (55 ± 5%), and light (12 h dark/light cycle), with freely available food and purified water. After 1 week of acclimation, 12 rats were randomly selected as the healthy group that was fed with the ordinary feed. The remaining 20 rats were modeled for T2DM that were fed with high-fat diet (HFD). After 4 weeks, the modeled rats fed HFD were fasted overnight, and measured fasting blood glucose (FBG), then intraperitoneally injected with STZ (35 mg/kg, inject once). One week later, the FBG was measured again, and only those rats whose FBG were over 16.7 mmol/L were considered to be T2DM rats.\nDose of 1 mg/kg for DAPA used in the study was recommended based on the package insert of DAPA and dose conversion per unit weight from humans to rats (6.3 times). ARE was administered to the rats with the dose of 300 mg/kg, which was selected by converting the recommended doses of AR for adults in practice to the doses of ARE for the rats, according to the Pharmacopoeia of the People’s Republic of China. The healthy rats and T2DM rats were randomly assigned to two groups (n = 6 each group). The CD group was the healthy rats intragastrically administered with DAPA in a single dose (1 mg/kg). The CDA group was the healthy rats intragastrically administered with ARE (300 mg/kg) once a day for seven consecutive days, and intragastrically administered with DAPA (1 mg/kg) at the same time on the seventh day. The MD group was the T2DM rats intragastrically administered with DAPA in a single dose (1 mg/kg).", "key": {"[1]": {"settings": "MD group: T2DM rats, DAPA alone, single intragastric dose 1.05 mg/kg, n = 6, mean ± SD"}, "[2]": {"settings": "MDA group compared to MD group (T2DM rats, with ARE versus DAPA alone)"}, "[3]": {"settings": "MDA group: T2DM rats, ARE 300 mg/kg intragastric once a day for 7 days + DAPA single dose 1.05 mg/kg on day 7, n = 6, mean ± SD"}, "[4]": {"settings": "MDA-H group: T2DM rats, ARE 900 mg/kg once a day for 7 days + DAPA single dose 1.05 mg/kg on day 7, n=6, mean ± SD"}, "[5]": {"settings": "MDA-L group: T2DM rats, ARE 300 mg/kg once a day for 7 days + DAPA single dose 1.05 mg/kg on day 7, n=6, mean ± SD"}, "[6]": {"settings": "T2DM rats compared to healthy rats, DAPA alone"}}}
{"smiles": "CCOc1ccc(Cc2cc([C@@H]3O[C@H](CO)[C@@H](O)[C@H](O)[C@H]3O)ccc2Cl)cc1", "note": "[DAPA, Dapagliflozin]", "values": [{"measurement": "AUC(0-inf)", "setting": "[1]", "result": "4505.74±148.96 h*(ng/mL)"}, {"measurement": "AUC(0-t)", "setting": "[1]", "result": "4324.28±185.47 h*(ng/mL)"}, {"measurement": "CL", "setting": "[1]", "result": "233.25±7.80 (mL/h)/kg"}, {"measurement": "V", "setting": "[1]", "result": "1.49898 ± 0.30743", "unit": "L/kg"}, {"measurement": "decrease of C max", "setting": "[2]", "result": 31.99, "unit": "%"}, {"measurement": "decrease of t max", "setting": "[2]", "result": 62.50, "unit": "%"}, {"measurement": "increase of V", "setting": "[2]", "result": 2.06, "unit": "fold"}, {"measurement": "increase of t 1/2", "setting": "[2]", "result": 2.18, "unit": "fold"}, {"measurement": "AUC(0-inf)", "setting": "[3]", "result": "4865.13±1307.11 h*(ng/mL)"}, {"measurement": "AUC(0-t)", "setting": "[3]", "result": "4051.27±952.61 h*(ng/mL)"}, {"measurement": "CL", "setting": "[3]", "result": "228.25±56.10 (mL/h)/kg"}, {"measurement": "V", "setting": "[3]", "result": "3.09173 ± 1.18358", "unit": "L/kg"}, {"measurement": "AUC(0-inf)", "setting": "[4]", "result": "4464.67±408.26 h*(ng/mL)"}, {"measurement": "AUC(0-t)", "setting": "[4]", "result": "4070.47±408.83 h*(ng/mL)"}, {"measurement": "CL", "setting": "[4]", "result": "237.88±21.93 (mL/h)/kg"}, {"measurement": "V", "setting": "[4]", "result": "2.55248 ± 0.48245", "unit": "L/kg"}, {"measurement": "AUC(0-inf)", "setting": "[5]", "result": "4560.99±768.53 h*(ng/mL)"}, {"measurement": "AUC(0-t)", "setting": "[5]", "result": "3991.37±640.65 h*(ng/mL)"}, {"measurement": "CL", "setting": "[5]", "result": "235.15±35.35 (mL/h)/kg"}, {"measurement": "V", "setting": "[5]", "result": "2.91586 ± 0.51024", "unit": "L/kg"}, {"measurement": "decrease of t max", "setting": "[6]", "result": 29.45, "unit": "%"}, {"measurement": "increase of C max", "setting": "[6]", "result": 62.94, "unit": "%"}, {"measurement": "difference of AUC(0-t), AUC(0-inf), CL, MRT", "setting": "between the MD group and the MDA group (T2DM rats)", "result": "no significant difference"}, {"measurement": "changes for t 1/2, V, AUC, CL and MRT", "setting": "healthy rats versus T2DM rats, DAPA alone", "result": "no significant changes"}, {"measurement": "Cmax", "setting": "1.05 mg/kg, C max, MD group: T2DM rats, DAPA alone, single intragastric dose 1.05 mg/kg, n = 6, mean ± SD", "result": "0.627 ± 0.0686", "unit": "µg/mL"}, {"measurement": "Cmax", "setting": "1.05 mg/kg, Cmax, MDA-H group: T2DM rats, ARE 900 mg/kg once a day for 7 days + DAPA single dose 1.05 mg/kg on day 7, n=6, mean ± SD", "result": "0.457 ± 0.0504", "unit": "µg/mL"}, {"measurement": "Cmax", "setting": "1.05 mg/kg, Cmax, MDA-L group: T2DM rats, ARE 300 mg/kg once a day for 7 days + DAPA single dose 1.05 mg/kg on day 7, n=6, mean ± SD", "result": "0.433 ± 0.0626", "unit": "µg/mL"}, {"measurement": "MRT last", "setting": "1.05 mg/kg, MD group: T2DM rats, DAPA alone, single intragastric dose 1.05 mg/kg, n = 6, mean ± SD", "result": "7.57 ± 0.32", "unit": "h"}, {"measurement": "MRT last", "setting": "1.05 mg/kg, MDA-H group: T2DM rats, ARE 900 mg/kg once a day for 7 days + DAPA single dose 1.05 mg/kg on day 7, n=6, mean ± SD", "result": "7.23 ± 0.37", "unit": "h"}, {"measurement": "MRT last", "setting": "1.05 mg/kg, MDA-L group: T2DM rats, ARE 300 mg/kg once a day for 7 days + DAPA single dose 1.05 mg/kg on day 7, n=6, mean ± SD", "result": "7.39 ± 0.34", "unit": "h"}, {"measurement": "half-life", "setting": "1.05 mg/kg, t 1/2, MD group: T2DM rats, DAPA alone, single intragastric dose 1.05 mg/kg, n = 6, mean ± SD", "result": "4.45 ± 0.9", "unit": "h"}, {"measurement": "half-life", "setting": "1.05 mg/kg, t1/2, MDA-H group: T2DM rats, ARE 900 mg/kg once a day for 7 days + DAPA single dose 1.05 mg/kg on day 7, n=6, mean ± SD", "result": "7.44 ± 0.86", "unit": "h"}, {"measurement": "half-life", "setting": "1.05 mg/kg, t1/2, MDA-L group: T2DM rats, ARE 300 mg/kg once a day for 7 days + DAPA single dose 1.05 mg/kg on day 7, n=6, mean ± SD", "result": "8.64 ± 1.08", "unit": "h"}, {"measurement": "Tmax", "setting": "1.05 mg/kg, t max, MD group: T2DM rats, DAPA alone, single intragastric dose 1.05 mg/kg, n = 6, mean ± SD", "result": 4, "unit": "h"}, {"measurement": "Tmax", "setting": "1.05 mg/kg, tmax, MDA-H group: T2DM rats, ARE 900 mg/kg once a day for 7 days + DAPA single dose 1.05 mg/kg on day 7, n=6, mean ± SD", "result": "1.45 ± 0.61", "unit": "h"}, {"measurement": "Tmax", "setting": "1.05 mg/kg, tmax, MDA-L group: T2DM rats, ARE 300 mg/kg once a day for 7 days + DAPA single dose 1.05 mg/kg on day 7, n=6, mean ± SD", "result": "1.25 ± 0.82", "unit": "h"}, {"measurement": "Cmax", "setting": "C max, MDA group: T2DM rats, ARE 300 mg/kg intragastric once a day for 7 days + DAPA single dose 1.05 mg/kg on day 7, n = 6, mean ± SD", "result": "0.427 ± 0.0589", "unit": "µg/mL"}, {"measurement": "MRT last", "setting": "[3]", "result": "7.64 ± 0.7", "unit": "h"}, {"measurement": "half-life", "setting": "t 1/2, MDA group: T2DM rats, ARE 300 mg/kg intragastric once a day for 7 days + DAPA single dose 1.05 mg/kg on day 7, n = 6, mean ± SD", "result": "9.69 ± 3.47", "unit": "h"}, {"measurement": "Tmax", "setting": "t max, MDA group: T2DM rats, ARE 300 mg/kg intragastric once a day for 7 days + DAPA single dose 1.05 mg/kg on day 7, n = 6, mean ± SD", "result": "1.5 ± 0.77", "unit": "h"}]}
